Legend:
[1] = tested on: BT-474 cancer cells; assay: Inhibition of BT-474 cell proliferation (CellTiter-Glo); assay type: cell-based; conditions: Homo sapiens, BT-474 cells, 120 hours
Outline: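 BT-474 cells in RPMI-1640 with 20% FBS, seeded 48 h before dosing with 11 three-fold dilutions (final 0.2 nM to 10 μM). Viability read by CellTiter-Glo luminescence 120 h after treatment, triplicate tests. GI50 derived from growth rate (%) versus control.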

[2] = tested on: N-87 cancer cells; assay: Inhibition of N-87 cell proliferation (CellTiter-Glo); assay type: cell-based; conditions: N-87 cells, 72 hours
Description: N-87 cancer cells were cultured by using RPMI-1640 medium with 10% FBS. The N-87 cancer cells were seeded to a white clear bottom 96 well plate (Corning) at 5,000 cells per well 24 hours before the […] cancer cells were treated with Example Compounds. Example Compounds were diluted in dimethylsulfoxide (5-fold diluted, total 11 concentrations) and 0.5 μL each was injected so that the final concentration was […]. For the measurement of living cells, the cells were stored at room temperature for 10 minutes using the CellTiter-Glo cell viability reagent (Promega) after 72 hours after the treatment of Example Compounds, and then the luminescence intensity was measured using the reader (SynergyNeo, Biotek).
The result value was calculated as a cell growth rate (%) compared to a control group. Graphs were plotted and GI50 values were calculated using the GraphPad Prism version 8.0 program, and the results are shown in Table 18 below.

COc1cc2ncnc(Nc3cc(C)c(Oc4ccccc4)cc3OC)c2cc1NC(=O)/C(F)=C\[C@H]1CCCN1C [Example 74, (R,E)-2-fluoro-N-(7-methoxy-4-((2-methoxy-5-methyl-4-phenoxyphenyl)amino)quinazolin-6-yl)-3-(1-methylpyrrolidin-2-yl)acrylamide]
GI50 [1]: ≤ 0.05 µM
GI50 [2]: ≤ 0.05 µM

COc1cc2ncnc(Nc3cc(C)c(Oc4ccn5ncnc5c4)cc3OC)c2cc1NC(=O)/C(F)=C\[C@H]1CCCN1C [Example 41, (R,E)-N-(4-((4-([1,2,4]triazolo[1,5-a]pyridin-7-yloxy)-2-methoxy-5-methylphenyl)amino)-7-methoxyquinazolin-6-yl)-2-fluoro-3-(1-methylpyrrolidin-2-yl)acrylamide]
GI50 [1]: ≤ 0.05 µM
GI50 [2]: ≤ 0.05 µM

C=CC(=O)N1CCC(F)(F)C(Oc2cc(OC)cc3ncnc(Nc4cc(C)c(Oc5ccn6ncnc6c5)cc4OC)c23)C1 (stereo not shown) [Example 16, 1-(3-((4-((4-([1,2,4]triazolo[1,5-a]pyridin-7-yloxy)-2-methoxy-5-methylphenyl)amino)-7-methoxyquinazolin-5-yl)oxy)-4,4-difluoropiperidin-1-yl)prop-2-en-1-one]
GI50 [1]: ≤ 0.05 µM
GI50 [2]: ≤ 0.05 µM

C=CC(=O)N1CCC(Oc2cc3c(Nc4cc(Cl)c(Oc5cccc(F)c5)cc4OC)ncnc3cc2OC)C(F)C1 (stereo not shown) [Example 6, 1-(4-((4-((5-chloro-4-(3-fluorophenoxy)-2-methoxyphenyl)amino)-7-methoxyquinazolin-6-yl)oxy)-3-fluoropiperidin-1-yl)prop-2-en-1-one]
GI50 [1]: ≤ 0.05 µM
GI50 [2]: ≤ 0.05 µM

C=CC(=O)N1CCC(Nc2cc3c(Nc4cc(C)c(Oc5ccn6ncnc6c5)cc4OC)ncnc3cc2OC)CC1 [Example 1, 1-(4-((4-((4-([1,2,4]triazolo[1,5-a]pyridin-7-yloxy)-2-methoxy-5-methylphenyl)amino)-7-methoxyquinazolin-6-yl)amino)piperidin-1-yl)prop-2-en-1-one]
GI50 [1]: ≤ 0.05 µM
GI50 [2]: ≤ 0.05 µM

COc1cc2ncnc(Nc3cc(Cl)c(Oc4ccn5ncnc5c4)cc3OC)c2cc1NC(=O)/C(F)=C\[C@H]1CCCN1C [Example 51, (R,E)-N-(4-((4-([1,2,4]triazolo[1,5-a]pyridin-7-yloxy)-5-chloro-2-methoxyphenyl)amino)-7-methoxyquinazolin-6-yl)-2-fluoro-3-(1-methylpyrrolidin-2-yl)acrylamide]
GI50 [1]: ≤ 0.05 µM
GI50 [2]: ≤ 0.05 µM

C=CC(=O)N1CCC(Oc2cc(OC)cc3ncnc(Nc4cc(C)c(Oc5ccn6ncnc6c5)cc4OC)c23)C(F)(F)C1 (stereo not shown) [Example 15, 1-(4-((4-((4-([1,2,4]triazolo[1,5-a]pyridin-7-yloxy)-2-methoxy-5-methylphenyl)amino)-7-methoxyquinazolin-5-yl)oxy)-3,3-difluoropiperidin-1-yl)prop-2-en-1-one]
GI50 [1]: ≤ 0.05 µM
GI50 [2]: ≤ 0.05 µM

C=CC(=O)N1CCC(Nc2cc3c(Nc4cc(Cl)c(Oc5ccccn5)cc4OC)ncnc3cc2OC)CC1 [Example 3, 1-(4-((4-((5-chloro-2-methoxy-4-(pyridin-2-yloxy)phenyl)amino)-7-methoxyquinazolin-6-yl)amino)piperidin-1-yl)prop-2-en-1-one]
GI50 [1]: ≤ 0.05 µM
GI50 [2]: ≤ 0.05 µM

COc1cc2ncnc(Nc3cc(Cl)c(Oc4cccc(F)c4)cc3OC)c2cc1NC(=O)/C=C/[C@H]1CCCN1 [Example 31, (R,E)-N-(4-((5-chloro-4-(3-fluorophenoxy)-2-methoxyphenyl)amino)-7-methoxyquinazolin-6-yl)-3-(pyrrolidin-2-yl)acrylamide]
GI50 [1]: ≤ 0.05 µM
GI50 [2]: ≤ 0.05 µM

COc1cc2ncnc(Nc3ccc(Oc4ccn5ncnc5c4)cc3OC)c2cc1NC(=O)/C(F)=C\[C@H]1CCCN1C [Example 46, (R,E)-N-(4-((4-([1,2,4]triazolo[1,5-a]pyridin-7-yloxy)-2-methoxyphenyl)amino)-7-methoxyquinazolin-6-yl)-2-fluoro-3-(1-methylpyrrolidin-2-yl)acrylamide]
GI50 [1]: ≤ 0.05 µM
GI50 [2]: ≤ 0.05 µM

C=CC(=O)N1CCC(Oc2cc3c(Nc4ccc(Oc5ccn(-c6cnc(C)c(F)c6)n5)cc4OC)ncnc3cc2OC)CC1 [Example 9, 1-(4-((4-((4-((1-(5-fluoro-6-methylpyridin-3-yl)-1H-pyrazol-3-yl)oxy)-2-methoxyphenyl)amino)-7-methoxyquinazolin-6-yl)oxy)piperidin-1-yl)prop-2-en-1-one]
GI50 [1]: 0.05 to 0.1 µM
GI50 [2]: ≤ 0.05 µM

COc1cc2ncnc(Nc3cc(C)c(Oc4ccn5ccnc5c4)cc3OC)c2cc1NC(=O)/C(F)=C/[C@H]1CCCN1C [Example 76, (R,Z)-2-fluoro-N-(4-((4-(imidazo[1,2-a]pyridin-7-yloxy)-2-methoxy-5-methylphenyl)amino)-7-methoxyquinazolin-6-yl)-3-(1-methylpyrrolidin-2-yl)acrylamide]
GI50 [1]: ≤ 0.05 µM
GI50 [2]: ≤ 0.05 µM

COc1cc2ncnc(Nc3cc(C)c(Oc4ccn5ncnc5c4)cc3OC)c2cc1NC(=O)/C(F)=C\[C@H]1CCCN1 [Example 134, (R,E)-N-(4-((4-([1,2,4]triazolo[1,5-a]pyridin-7-yloxy)-2-methoxy-5-methylphenyl)amino)-7-methoxyquinazolin-6-yl)-2-fluoro-3-(pyrrolidin-2-yl)acrylamide]
GI50 [1]: ≤ 0.05 µM
GI50 [2]: ≤ 0.05 µM

COc1cc(Oc2ccn3ncnc3c2)c(C)cc1Nc1ncnc2ccc(NC(=O)/C(F)=C\[C@H]3CCCN3C)cc12 [Example 91, (R,E)-N-(4-((4-([1,2,4]triazolo[1,5-a]pyridin-7-yloxy)-2-methoxy-5-methylphenyl)amino)quinazolin-6-yl)-2-fluoro-3-(1-methylpyrrolidin-2-yl)acrylamide]
GI50 [1]: ≤ 0.05 µM
GI50 [2]: ≤ 0.05 µM

COCCOc1cc2ncnc(Nc3cc(C)c(Oc4ccn5ncnc5c4)cc3OC)c2cc1NC(=O)/C(F)=C/[C@H]1CCCN1C [Example 95, (R,Z)—N-(4-((4-([1,2,4]triazolo[1,5-a]pyridin-7-yloxy)-2-methoxy-5-methylphenyl)amino)-7-(2-methoxyethoxy)quinazolin-6-yl)-2-fluoro-3-(1-methylpyrrolidin-2-yl)acrylamide]
GI50 [1]: ≤ 0.05 µM
GI50 [2]: ≤ 0.05 µM

COc1cc2ncnc(Nc3cc(Cl)c(Oc4ccn5ncnc5c4)cc3OC)c2cc1NC(=O)/C=C/[C@H]1CCCN1C [Example 32, (R,E)-N-(4-((4-([1,2,4]triazolo[1,5-a]pyridin-7-yloxy)-5-chloro-2-methoxyphenyl)amino)-7-methoxyquinazolin-6-yl)-3-(1-methylpyrrolidin-2-yl)acrylamide]
GI50 [1]: ≤ 0.05 µM
GI50 [2]: ≤ 0.05 µM

C=CC(=O)N1CCC(Oc2cc3c(Nc4ccc(Oc5cccc(F)c5)cc4OC)ncnc3cc2OC)CC1 [Example 7, 1-(4-((4-((4-(3-fluorophenoxy)-2-methoxyphenyl)amino)-7-methoxyquinazolin-6-yl)oxy)piperidin-1-yl)prop-2-en-1-one]
GI50 [1]: ≤ 0.05 µM
GI50 [2]: ≤ 0.05 µM

[2H]C([2H])([2H])N1CCC[C@@H]1/C=C(\F)C(=O)Nc1cc2c(Nc3cc(Cl)c(Oc4ccn5ncnc5c4)cc3OC)ncnc2cc1OC [Example 156, (R,Z)—N-(4-((4-([1,2,4]triazolo[1,5-a]pyridin-7-yloxy)-5-chloro-2-methoxyphenyl)amino)-7-methoxyquinazolin-6-yl)-2-fluoro-3-(1-(methyl-d3)pyrrolidin-2-yl)acrylamide]
GI50 [1]: ≤ 0.05 µM

COc1cc2ncnc(Nc3cc(C)c(Oc4ccn5ncnc5c4)cc3OC)c2cc1NC(=O)/C(F)=C/C1CCCN1C (stereo not shown) [Example 43, (Z)—N-(4-((4-([1,2,4]triazolo[1,5-a]pyridin-7-yloxy)-2-methoxy-5-methylphenyl)amino)-7-methoxyquinazolin-6-yl)-2-fluoro-3-(1-methylpyrrolidin-2-yl)acrylamide]
GI50 [1]: ≤ 0.05 µM

COc1cc2ncnc(Nc3cc(C)c(Oc4cnc5ccnn5c4)cc3OC)c2cc1NC(=O)/C(F)=C/[C@H]1CCCN1C [Example 80, (R,Z)-2-fluoro-N-(7-methoxy-4-((2-methoxy-5-methyl-4-(pyrazolo[1,5-a]pyrimidin-6-yloxy)phenyl)amino)quinazolin-6-yl)-3-(1-methylpyrrolidin-2-yl)acrylamide]
GI50 [1]: ≤ 0.05 µM

COc1cc2ncnc(Nc3cc(Br)c(Oc4ccn5ncnc5c4)cc3OC)c2cc1NC(=O)/C(F)=C/[C@H]1CCCN1C [Example 139, (R,Z)—N-(4-((4-([1,2,4]triazolo[1,5-a]pyridin-7-yloxy)-5-bromo-2-methoxyphenyl)amino)-7-methoxyquinazolin-6-yl)-2-fluoro-3-(1-methylpyrrolidin-2-yl)acrylamide]
GI50 [1]: ≤ 0.05 µM

COc1cc2ncnc(Nc3cc(C)c(Oc4ccc5cccnc5c4)cc3OC)c2cc1NC(=O)/C(F)=C\[C@H]1CCCN1C [Example 88, (R,E)-2-fluoro-N-(7-methoxy-4-((2-methoxy-5-methyl-4-(quinolin-7-yloxy)phenyl)amino)quinazolin-6-yl)-3-(1-methylpyrrolidin-2-yl)acrylamide]
GI50 [1]: ≤ 0.05 µM

COc1cc2ncnc(Nc3cc(C)c(Oc4ccn5ncnc5c4)cc3OC3CC3)c2cc1NC(=O)/C(F)=C/[C@H]1CCCN1C [Example 107, (R,Z)—N-(4-((4-([1,2,4]triazolo[1,5-a]pyridin-7-yloxy)-2-cyclopropoxy-5-methylphenyl)amino)-7-methoxyquinazolin-6-yl)-2-fluoro-3-(1-methylpyrrolidin-2-yl)acrylamide]
GI50 [1]: ≤ 0.05 µM

Source: patent US20240383923A1, “HETEROARYL DERIVATIVE AND USE THEREOF” (VORONOI INC., priority 2022, published 2024)
